Experimental data: patent US6518243B1, “Desleucyl glycopeptide antibiotics and methods of making same” (Trustees of Princeton University, priority 1999, dated 2003)

Assays:
Assay in all cases: Zone of inhibition screen, 96 well agar array format
Type in all cases: cell-based
Design in all cases: scale not given here
[1] = tested on: S. epidermidis (ATCC 12228)
In short: (§1)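 Panel screening of every compound against several bacterial strains, among them E. faecium ATCC 49624, was done in a 96-well agar array.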

S. aureus (ATCC 29213) = tested on: S. aureus (ATCC 29213)
In short: as §1

E. faecalis (CL 4877) = tested on: E. faecalis (CL 4877)
In short: as §1

[2] = zone of inhibition relative to 1 mg/ml stock solution of p-chlorobiphenylvancomycin
[3] = zone of inhibition relative to 1 mg/ml p-chlorobiphenylvancomycin

CC(=O)N[C@@H](Cc1c[nH]cn1)C(=O)N[C@H]1C(=O)N[C@@H](CC(N)=O)C(=O)N[C@H]2C(=O)NC3C(=O)N[C@H](C(=O)N[C@@H](C(=O)O)c4cc(O)cc(O)c4-c4cc3ccc4O)[C@H](O)c3ccc(c(Cl)c3)Oc3cc2cc(c3OC2OC(CO)C(O)C(O)C2OC2CC(C)(NCc3ccc(-c4ccc(Cl)cc4)cc3)C(O)C(C)O2)Oc2ccc(cc2Cl)[C@H]1O (stereo partly drawn) [Compound 181]
zone score, S. epidermidis ATCC 12228 [1, 2]: 2
zone score, S. aureus ATCC 29213 (S. aureus (ATCC 29213); [2]): 2
zone score, E. faecalis CL 4877 (E. faecalis (CL 4877); [2]): 2

CC1OC(OC2C(Oc3c4cc5cc3Oc3ccc(cc3Cl)C(O)C3NC(=O)C(NC(=O)C5NC(=O)C(CC(N)=O)NC(=O)C(NC(=O)c5cccc(O)c5)C(O)c5ccc(c(Cl)c5)O4)c4ccc(O)c(c4)-c4c(O)cc(O)cc4C(C(=O)O)NC3=O)OC(CO)C(O)C2O)CC(C)(NCc2ccc(-c3ccc(Cl)cc3)cc2)C1O (stereo not drawn) [Compound 261]
zone score, S. epidermidis ATCC 12228 [1, 3]: 2
zone score, S. aureus ATCC 29213 (S. aureus (ATCC 29213); [3]): 2
zone score, E. faecalis CL 4877 (E. faecalis (CL 4877); [3]): 2

CC1OC(OC2C(Oc3c4cc5cc3Oc3ccc(cc3Cl)C(O)C(NC(=O)C3CCCN3C(=O)C3CCCN3)C(=O)NC(CC(N)=O)C(=O)NC5C(=O)NC3C(=O)NC(C(=O)NC(C(=O)O)c5cc(O)cc(O)c5-c5cc3ccc5O)C(O)c3ccc(c(Cl)c3)O4)OC(CO)C(O)C2O)CC(C)(NCc2ccc(-c3ccc(Cl)cc3)cc2)C1O (stereo not drawn) [Compound 86]
zone score, S. epidermidis ATCC 12228 [1, 2]: 2
zone score, S. aureus ATCC 29213 (S. aureus (ATCC 29213); [2]): 2
zone score, E. faecalis CL 4877 (E. faecalis (CL 4877); [2]): 2

CC(=O)NC(Cc1cnc[nH]1)C(=O)NC1C(=O)NC(CC(N)=O)C(=O)NC2C(=O)NC3C(=O)NC(C(=O)NC(C(=O)O)c4cc(O)cc(O)c4-c4cc3ccc4O)C(O)c3ccc(c(Cl)c3)Oc3cc2cc(c3OC2OC(CO)C(O)C(O)C2OC2CC(C)(NCc3ccc(-c4ccc(Cl)cc4)cc3)C(O)C(C)O2)Oc2ccc(cc2Cl)C1O (mixture of isomers) [Compound 324]
zone score, S. epidermidis ATCC 12228 [1, 3]: 2
zone score, S. aureus ATCC 29213 (S. aureus (ATCC 29213); [3]): 2
zone score, E. faecalis CL 4877 (E. faecalis (CL 4877); [3]): 2

CC1OC(OC2C(Oc3c4cc5cc3Oc3ccc(cc3Cl)C(O)C3NC(=O)C(NC(=O)C5NC(=O)C(CC(N)=O)NC(=O)C(NC(=O)c5ccc(S(C)(=O)=O)cc5)C(O)c5ccc(c(Cl)c5)O4)c4ccc(O)c(c4)-c4c(O)cc(O)cc4C(C(=O)O)NC3=O)OC(CO)C(O)C2O)CC(C)(NCc2ccc(-c3ccc(Cl)cc3)cc2)C1O (stereo not drawn) [Compound 264]
zone score, S. epidermidis ATCC 12228 [1, 3]: 2
zone score, S. aureus ATCC 29213 (S. aureus (ATCC 29213); [3]): 2
zone score, E. faecalis CL 4877 (E. faecalis (CL 4877); [3]): 0

COc1cc(OC)c(CNC(=O)CCC(N)C(=O)NC2C(=O)NC(CC(N)=O)C(=O)NC3C(=O)NC4C(=O)NC(C(=O)NC(C(=O)O)c5cc(O)cc(O)c5-c5cc4ccc5O)C(O)c4ccc(c(Cl)c4)Oc4cc3cc(c4OC3OC(CO)C(O)C(O)C3OC3CC(C)(NCc4ccc(-c5ccc(Cl)cc5)cc4)C(O)C(C)O3)Oc3ccc(cc3Cl)C2O)c(OC)c1 (stereo not drawn) [Compound 66]
zone score, S. epidermidis ATCC 12228 [1, 2]: 2
zone score, S. aureus ATCC 29213 (S. aureus (ATCC 29213); [2]): 2
zone score, E. faecalis CL 4877 (E. faecalis (CL 4877); [2]): 2

CC(NC(N)=O)C(=O)NC1C(=O)NC(CC(N)=O)C(=O)NC2C(=O)NC3C(=O)NC(C(=O)NC(C(=O)O)c4cc(O)cc(O)c4-c4cc3ccc4O)C(O)c3ccc(c(Cl)c3)Oc3cc2cc(c3OC2OC(CO)C(O)C(O)C2OC2CC(C)(NCc3ccc(-c4ccc(Cl)cc4)cc3)C(O)C(C)O2)Oc2ccc(cc2Cl)C1O (mixture of isomers) [Compound 206]
zone score, S. epidermidis ATCC 12228 [1, 3]: 2
zone score, S. aureus ATCC 29213 (S. aureus (ATCC 29213); [3]): 2
zone score, E. faecalis CL 4877 (E. faecalis (CL 4877); [3]): 2

CC1OC(OC2C(Oc3c4cc5cc3Oc3ccc(cc3Cl)C(O)C3NC(=O)C(NC(=O)C5NC(=O)C(CC(N)=O)NC(=O)C(NC(=O)C(CCC(N)=O)NC(=O)CNC(=O)OCc5ccccc5)C(O)c5ccc(c(Cl)c5)O4)c4ccc(O)c(c4)-c4c(O)cc(O)cc4C(C(=O)O)NC3=O)OC(CO)C(O)C2O)CC(C)(NCc2ccc(-c3ccc(Cl)cc3)cc2)C1O (stereo not drawn) [Compound 212]
zone score, S. epidermidis ATCC 12228 [1, 3]: 2
zone score, S. aureus ATCC 29213 (S. aureus (ATCC 29213); [3]): 2
zone score, E. faecalis CL 4877 (E. faecalis (CL 4877); [3]): 2

CC(NC(=O)OCc1ccccc1)C(=O)NCC(=O)NCC(=O)NC1C(=O)NC(CC(N)=O)C(=O)NC2C(=O)NC3C(=O)NC(C(=O)NC(C(=O)O)c4cc(O)cc(O)c4-c4cc3ccc4O)C(O)c3ccc(c(Cl)c3)Oc3cc2cc(c3OC2OC(CO)C(O)C(O)C2OC2CC(C)(NCc3ccc(-c4ccc(Cl)cc4)cc3)C(O)C(C)O2)Oc2ccc(cc2Cl)C1O (stereo not drawn) [Compound 209]
zone score, S. epidermidis ATCC 12228 [1, 3]: 2
zone score, S. aureus ATCC 29213 (S. aureus (ATCC 29213); [3]): 2
zone score, E. faecalis CL 4877 (E. faecalis (CL 4877); [3]): 2

CC1OC(OC2C(Oc3c4cc5cc3Oc3ccc(cc3Cl)C(O)C3NC(=O)C(NC(=O)C5NC(=O)C(CC(N)=O)NC(=O)C(NC(=O)c5c[nH]cn5)C(O)c5ccc(c(Cl)c5)O4)c4ccc(O)c(c4)-c4c(O)cc(O)cc4C(C(=O)O)NC3=O)OC(CO)C(O)C2O)CC(C)(NCc2ccc(-c3ccc(Cl)cc3)cc2)C1O (stereo not drawn) [Compound 272]
zone score, S. epidermidis ATCC 12228 [1, 3]: 2
zone score, S. aureus ATCC 29213 (S. aureus (ATCC 29213); [3]): 2
zone score, E. faecalis CL 4877 (E. faecalis (CL 4877); [3]): 2

CC1OC(OC2C(Oc3c4cc5cc3Oc3ccc(cc3Cl)C(O)C3NC(=O)C(NC(=O)C5NC(=O)C(CC(N)=O)NC(=O)C(NC(=O)C5CSC(=O)N5)C(O)c5ccc(c(Cl)c5)O4)c4ccc(O)c(c4)-c4c(O)cc(O)cc4C(C(=O)O)NC3=O)OC(CO)C(O)C2O)CC(C)(NCc2ccc(-c3ccc(Cl)cc3)cc2)C1O (stereo not drawn) [Compound 224]
zone score, S. epidermidis ATCC 12228 [1, 3]: 2
zone score, S. aureus ATCC 29213 (S. aureus (ATCC 29213); [3]): 2
zone score, E. faecalis CL 4877 (E. faecalis (CL 4877); [3]): 2

CC(N)C(=O)NC(C)C(=O)NC1C(=O)NC(CC(N)=O)C(=O)NC2C(=O)NC3C(=O)NC(C(=O)NC(C(=O)O)c4cc(O)cc(O)c4-c4cc3ccc4O)C(O)c3ccc(c(Cl)c3)Oc3cc2cc(c3OC2OC(CO)C(O)C(O)C2OC2CC(C)(NCc3ccc(-c4ccc(Cl)cc4)cc3)C(O)C(C)O2)Oc2ccc(cc2Cl)C1O (stereo not drawn) [Compound 35]
zone score, S. epidermidis ATCC 12228 [1, 2]: 2
zone score, S. aureus ATCC 29213 (S. aureus (ATCC 29213); [2]): 2
zone score, E. faecalis CL 4877 (E. faecalis (CL 4877); [2]): 2

Cc1oncc1C(=O)NC1C(=O)NC(CC(N)=O)C(=O)NC2C(=O)NC3C(=O)NC(C(=O)NC(C(=O)O)c4cc(O)cc(O)c4-c4cc3ccc4O)C(O)c3ccc(c(Cl)c3)Oc3cc2cc(c3OC2OC(CO)C(O)C(O)C2OC2CC(C)(NCc3ccc(-c4ccc(Cl)cc4)cc3)C(O)C(C)O2)Oc2ccc(cc2Cl)C1O (stereo not drawn) [Compound 275]
zone score, S. epidermidis ATCC 12228 [1, 3]: 2
zone score, S. aureus ATCC 29213 (S. aureus (ATCC 29213); [3]): 2
zone score, E. faecalis CL 4877 (E. faecalis (CL 4877); [3]): 2

CC(=O)OCC(N)C(=O)NC1C(=O)NC(CC(N)=O)C(=O)NC2C(=O)NC3C(=O)NC(C(=O)NC(C(=O)O)c4cc(O)cc(O)c4-c4cc3ccc4O)C(O)c3ccc(c(Cl)c3)Oc3cc2cc(c3OC2OC(CO)C(O)C(O)C2OC2CC(C)(NCc3ccc(-c4ccc(Cl)cc4)cc3)C(O)C(C)O2)Oc2ccc(cc2Cl)C1O (stereo not drawn) [Compound 87]
zone score, S. epidermidis ATCC 12228 [1, 2]: 2
zone score, S. aureus ATCC 29213 (S. aureus (ATCC 29213); [2]): 2
zone score, E. faecalis CL 4877 (E. faecalis (CL 4877); [2]): 2

CC1OC(OC2C(Oc3c4cc5cc3Oc3ccc(cc3Cl)C(O)C3NC(=O)C(NC(=O)C5NC(=O)C(CC(N)=O)NC(=O)C(NC(=O)CNC(=O)CNC(=O)CCNC(=O)OCc5ccccc5)C(O)c5ccc(c(Cl)c5)O4)c4ccc(O)c(c4)-c4c(O)cc(O)cc4C(C(=O)O)NC3=O)OC(CO)C(O)C2O)CC(C)(NCc2ccc(-c3ccc(Cl)cc3)cc2)C1O (stereo not drawn) [Compound 210]
zone score, S. epidermidis ATCC 12228 [1, 3]: 2
zone score, S. aureus ATCC 29213 (S. aureus (ATCC 29213); [3]): 2
zone score, E. faecalis CL 4877 (E. faecalis (CL 4877); [3]): 2

CCOCCC(=O)N[C@H]1C(=O)N[C@@H](CC(N)=O)C(=O)N[C@H]2C(=O)N[C@H]3C(=O)N[C@H](C(=O)N[C@@H](C(=O)O)c4cc(O)cc(O)c4-c4cc3ccc4O)[C@H](O)c3ccc(c(Cl)c3)Oc3cc2cc(c3O[C@@H]2O[C@H](CO)[C@@H](O)[C@H](O)[C@H]2O[C@@H]2C[C@@](C)(NCc3ccc(-c4ccc(Cl)cc4)cc3)[C@@H](O)[C@@H](C)O2)Oc2ccc(cc2Cl)[C@H]1O [Compound 258]
zone score, S. epidermidis ATCC 12228 [1, 3]: 2
zone score, S. aureus ATCC 29213 (S. aureus (ATCC 29213); [3]): 2
zone score, E. faecalis CL 4877 (E. faecalis (CL 4877); [3]): 2

CC1OC(OC2C(Oc3c4cc5cc3Oc3ccc(cc3Cl)C(O)C3NC(=O)C(NC(=O)C5NC(=O)C(CC(N)=O)NC(=O)C(NC(=O)CNC(=O)C(CCC(N)=O)NC(=O)OCc5ccccc5)C(O)c5ccc(c(Cl)c5)O4)c4ccc(O)c(c4)-c4c(O)cc(O)cc4C(C(=O)O)NC3=O)OC(CO)C(O)C2O)CC(C)(NCc2ccc(-c3ccc(Cl)cc3)cc2)C1O (stereo not drawn) [Compound 211]
zone score, S. epidermidis ATCC 12228 [1, 3]: 2
zone score, S. aureus ATCC 29213 (S. aureus (ATCC 29213); [3]): 2
zone score, E. faecalis CL 4877 (E. faecalis (CL 4877); [3]): 2

CC(=O)N1CCC[C@H]1C(=O)N[C@H]1C(=O)N[C@@H](CC(N)=O)C(=O)N[C@H]2C(=O)NC3C(=O)N[C@H](C(=O)N[C@@H](C(=O)O)c4cc(O)cc(O)c4-c4cc3ccc4O)[C@H](O)c3ccc(c(Cl)c3)Oc3cc2cc(c3OC2OC(CO)C(O)C(O)C2OC2CC(C)(NCc3ccc(-c4ccc(Cl)cc4)cc3)C(O)C(C)O2)Oc2ccc(cc2Cl)[C@H]1O (stereo partly drawn) [Compound 183]
zone score, S. epidermidis ATCC 12228 [1, 2]: 2
zone score, S. aureus ATCC 29213 (S. aureus (ATCC 29213); [2]): 2
zone score, E. faecalis CL 4877 (E. faecalis (CL 4877); [2]): 2

COc1cc(OC)c(CNC(=O)CC(N)C(=O)NC2C(=O)NC(CC(N)=O)C(=O)NC3C(=O)NC4C(=O)NC(C(=O)NC(C(=O)O)c5cc(O)cc(O)c5-c5cc4ccc5O)C(O)c4ccc(c(Cl)c4)Oc4cc3cc(c4OC3OC(CO)C(O)C(O)C3OC3CC(C)(NCc4ccc(-c5ccc(Cl)cc5)cc4)C(O)C(C)O3)Oc3ccc(cc3Cl)C2O)c(OC)c1 (stereo not drawn) [Compound 45]
zone score, S. epidermidis ATCC 12228 [1, 2]: 2
zone score, S. aureus ATCC 29213 (S. aureus (ATCC 29213); [2]): 2
zone score, E. faecalis CL 4877 (E. faecalis (CL 4877); [2]): 2
